# Results reported in paper PMC12006031, “Inhibitory Effect of Whey Protein‐Derived Peptide Leu‐Asp‐Gln‐Trp on Xanthine Oxidase” (Food Science & Nutrition, 2025).
# Read-outs that look alike come from different tables or passages of the source. Residues, ends and D or L forms follow the SMILES beside them. No end group written: not given here.
# Columns and labels:
# [1] = target: T1, XO from bovine milk (Bos taurus, UniProt P80457); experiment: XO inhibitory activity by LC-MS/MS quantification of uric acid; format: biochemical; details: for XO inhibitory activity (inhibition ratio): 20 mM, UA by LC-MS/MS (PRM m/z 169.03/70.04) after 30 min, XO 25 U/L, xanthine 0.42 mM, 0.1 M phosphate buffer pH 7.2 containing 0.1 M sodium chloride, mean ± SD; for XO inhibitory activity (inhibition ratio) / Concentration with significant XO inhibition / Significance of XO inhibition at any concentration: n = 3; for Concentration dependence of XO inhibition: Figure 5 or Figure 6; for Concentration with significant XO inhibition: vs. control, Figure 5; for Concentration with significant XO inhibition / Significance of XO inhibition at any concentration: one-way ANOVA, Tukey-Kramer; for Significance of XO inhibition at any concentration: tryptophan Figure 5, leucine Figure 6
# T1 construct: XO from bovine milk and xanthine were purchased from Sigma‐Aldrich Corp. (MO, USA); purchased Sigma‐Aldrich Corp. (MO, USA); host or cells: bovine milk (natural source)
# T1 sequence (P80457 whole entry): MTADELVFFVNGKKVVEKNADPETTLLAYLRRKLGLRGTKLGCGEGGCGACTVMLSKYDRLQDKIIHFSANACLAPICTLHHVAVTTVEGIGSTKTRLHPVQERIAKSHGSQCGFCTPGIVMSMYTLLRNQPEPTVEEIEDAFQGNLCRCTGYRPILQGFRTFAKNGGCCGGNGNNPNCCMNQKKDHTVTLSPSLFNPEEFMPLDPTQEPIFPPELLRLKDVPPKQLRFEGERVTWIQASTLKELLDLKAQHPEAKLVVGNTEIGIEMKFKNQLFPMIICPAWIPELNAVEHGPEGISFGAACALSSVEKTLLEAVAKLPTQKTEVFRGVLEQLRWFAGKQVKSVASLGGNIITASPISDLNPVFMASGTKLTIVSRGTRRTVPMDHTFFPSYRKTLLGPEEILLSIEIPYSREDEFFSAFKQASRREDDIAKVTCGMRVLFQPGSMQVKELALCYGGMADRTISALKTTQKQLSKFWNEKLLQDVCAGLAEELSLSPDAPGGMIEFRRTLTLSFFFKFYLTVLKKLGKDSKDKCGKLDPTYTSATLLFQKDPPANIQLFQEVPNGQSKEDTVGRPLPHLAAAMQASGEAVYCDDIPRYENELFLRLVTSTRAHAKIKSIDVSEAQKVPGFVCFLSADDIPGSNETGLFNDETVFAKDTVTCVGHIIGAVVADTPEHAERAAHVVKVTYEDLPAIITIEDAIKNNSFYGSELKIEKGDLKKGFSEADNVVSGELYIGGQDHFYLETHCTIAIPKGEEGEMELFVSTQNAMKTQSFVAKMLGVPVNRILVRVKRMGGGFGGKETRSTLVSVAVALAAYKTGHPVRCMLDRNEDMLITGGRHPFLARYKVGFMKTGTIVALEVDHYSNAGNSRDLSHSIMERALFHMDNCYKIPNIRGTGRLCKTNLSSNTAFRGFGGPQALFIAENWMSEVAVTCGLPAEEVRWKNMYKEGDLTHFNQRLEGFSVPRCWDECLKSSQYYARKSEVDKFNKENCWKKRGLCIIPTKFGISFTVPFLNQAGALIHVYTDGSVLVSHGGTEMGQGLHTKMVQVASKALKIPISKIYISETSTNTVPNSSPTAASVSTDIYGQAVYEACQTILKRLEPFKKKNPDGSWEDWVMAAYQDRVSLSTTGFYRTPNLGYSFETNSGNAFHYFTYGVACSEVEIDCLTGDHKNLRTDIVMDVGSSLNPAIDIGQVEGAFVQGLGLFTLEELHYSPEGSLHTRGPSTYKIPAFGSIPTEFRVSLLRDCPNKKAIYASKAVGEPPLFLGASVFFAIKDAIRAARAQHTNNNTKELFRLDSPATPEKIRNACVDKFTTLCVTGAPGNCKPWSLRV
# Description: (§1) Tryptophan and leucine were obtained from Kanto Chemical Co. Ltd. (Tokyo, Japan). The evaluation samples such as peptides and amino acids, and allopurinol (FUJIFILM Wako Pure Chemical Corp., Tokyo, Japan) as a positive control for the evaluation method, were suspended in 0.1 M phosphate buffer pH 7.2 (FUJIFILM Wako Pure Chemical Corp., Tokyo, Japan) containing 0.1 M sodium chloride. The samples were obtained for the assay after sonication for 10 min. XO from bovine milk and xanthine were purchased from Sigma‐Aldrich Corp. (MO, USA). […] The xanthine solution was prepared by diluting it with buffer at a ratio of 1:10.
# (§2) Briefly, the samples (e.g., LDQW) or allopurinol were mixed with the XO solution (final concentration: 25 U/L). A mixture added to the buffer instead of the sample was analyzed as a control. […] The sample, XO solution, and xanthine solution were reacted in a 2:1:1 ratio. The assay was performed in triplicate. The XO inhibitory activity was calculated using the following equation: XOinhibitory activity%=1−AbS30min−AbS0min/AbC30min−AbC0min×100
# 2.3 Determination of XO Inhibitory Activity Using LC–MS/MS
# To halt the enzymatic reaction, an equal volume of 1 M HCl, purchased from Kanto Chemical Co. Ltd. (Tokyo, Japan), was promptly added to the mixture after the absorbance was monitored for 30 min (Figure 1A). The mixture was then diluted 50‐fold with water containing 0.2% (v/v) formic acid (FA), which was purchased from Kanto Chemical Co. Ltd. (Tokyo, Japan), to prepare analytical samples for LC–MS/MS. UA in the analytical samples was measured using a Vanquish Ultra‐High‐Performance LC system coupled with a Vanquish variable wavelength detector VF‐D40 and a Q Exactive Focus (Thermo Fisher Scientific Inc., MA, USA). UA in the analytical samples was separated using an XBridge Peptide BEH C18 Column (2.1 mm i.d. × 250 mm, 3.5 μm, Waters Inc., MA, USA).
# UA separation was achieved using 0.1% (v/v) FA in water (solvent A) and 0.1% FA in methanol (solvent B, Kanto Chemical Co. Ltd., Tokyo, Japan) with the following gradient over 22 min: 2% B for 5 min, increased from 2% to 10% B over 3 min, from 10% to 80% B over 2 min, held at 80% B for 2 min, decreased from 80% to 2% B over 0.1 min and held at 2% B for 10 min. The column temperature and flow rate were maintained at 40°C and 0.2 mL/min, respectively. During separation, the absorbance was monitored at 290 nm.
# MS detection was performed in positive ion mode. […] The peak area detected at a retention time of 4.3 min was analyzed using Thermo Scientific Xcalibur. UA was quantified using the absolute calibration curve method, which was constructed from the peak areas of UA at various concentrations. XO inhibitory activity was calculated as [1 − UAs/UAc] × 100%, where UAs and UAc represent the amount of UA in the samples and control, respectively.
# (§3) All experiments were performed in triplicate, with data indicated as mean ± standard deviation (SD). […] One‐way analysis of variance (ANOVA) was used for parametric analyses, followed by the Tukey–Kramer test. p values of < 0.05 were considered statistically significant.
# [2] = target: T1, XO from bovine milk; experiment: XO inhibitory activity by absorptiometry (absorbance at 290 nm, microplate reader); format: biochemical; details: for Suppression of the absorbance increase / enzymatic reaction compared with control (relative absorbance): 290 nm every 5 min for 30 min, Figure 2; for Concentration dependence of XO inhibitory activity / Concentration with significant XO inhibition: absorptiometry; for Concentration with significant XO inhibition: vs. control, p < 0.01, one-way ANOVA, Tukey-Kramer
# Description: as §1
# 2.2 Enzymatic Reaction and Monitoring of Absorbance Using a Microplate Reader
# as §2
# AbS30min : Absorbance of the sample at 30 min.
# AbS0min : Absorbance of the sample at 0 min.
# AbC30min : Absorbance of the control at 30 min.
# AbC0min : Absorbance of the control at 0 min.
# as §3
# [3] = system: xanthine oxidase (XO); details: cited from earlier work; for IC50: literature value, ref He et al. [2019], Mao et al. [2023], Xu, Liu, et al. [2024], read-out: IC50 (XO inhibition)
# [4] = system: rat model of hyperuricemia; details: orally administered, ref He et al. [2024], Qi et al. [2022a]; cited from earlier work
# Excerpt: There have been numerous reports on bioactive peptides with XO inhibitory activity.
# [5] = system: rat model of hyperuricemia; details: ref Qi et al. [2023], [2024]; cited from earlier work
# Excerpt: As study limitations, the mechanism for alleviating hyperuricemia is known to involve not only XO activity inhibition but also other factors, such as UA excretion promotion and UA reabsorption inhibition (Cicero et al. [2021]).
# [6] = experiment of Figure 6 (DQW fragment)
# [7] = 20 mM, absorbance at 290 nm, 0-30 min, XO 25 U/L, xanthine 0.42 mM, 0.1 M phosphate buffer pH 7.2 containing 0.1 M sodium chloride, mean ± SD, n = 3, Figure 3
# [8] = 1-20 mM tested, n = 3, Figure 3
compound,measurement,setting,value
"CC(C)C[C@H](N)C(=O)N[C@@H](CC(=O)O)C(=O)N[C@@H](CCC(N)=O)C(=O)N[C@@H](Cc1c[nH]c2ccccc12)C(=O)O [LDQW, Leu‐Asp‐Gln‐Trp] (H-LDQW-OH)",XO inhibitory activity (inhibition ratio),[1]; experiment of Figure 5,58.0% ± 2.8
same,XO inhibitory activity (inhibition ratio),[1]; [6],57.9% ± 3.2
same,inhibition at 20000 µM,[2]; [7],96.4%
Oc1ncnc2[nH]ncc12 [allopurinol],Concentration dependence of XO inhibition,[1]; LC-MS/MS,significantly inhibited XO activity in a concentration‐dependent manner
same,Concentration with significant XO inhibition,"[1]; allopurinol positive control, LC-MS/MS",≥ 1 µM
same,XO inhibition reported earlier,[3]; ref Klein et al. [1996],reported to have XO inhibitory activity
same,Suppression of the absorbance increase / enzymatic reaction compared with control (relative absorbance),[2]; n = 3,suppressed the increase in absorbance in a concentration‐dependent manner
same,Concentration dependence of XO inhibitory activity,[2]; Figure 3,increased with rising concentrations in a concentration‐dependent manner
same,Concentration with significant XO inhibition,"[2]; allopurinol positive control, 1-50 μM tested, n = 3, Figure 3",≥ 0.001 mM
CC(C)C[C@H](N)C(=O)O [leucine],Significance of XO inhibition at any concentration,[1]; LC-MS/MS,no significant XO inhibition was observed
N[C@@H](Cc1c[nH]c2ccccc12)C(=O)O [tryptophan],XO inhibitory activity (inhibition ratio),[1]; experiment of Figure 5,4.4% ± 3.7
same,Significance of XO inhibition at any concentration,[1]; LC-MS/MS,did not exhibit significant XO inhibition at any concentration
same,inhibition at 20000 µM,[2]; [7],95.2%
same,Suppression of the absorbance increase / enzymatic reaction compared with control (relative absorbance),[2]; n = 3,the enzymatic reaction by XO was suppressed compared with the control
same,Concentration dependence of XO inhibitory activity,[2]; Figure 3,increased with rising concentrations in a concentration‐dependent manner
same,Concentration with significant XO inhibition,[2]; [8],≥ 1 mM
Ala‐Leu,IC50,[3],34.5 mM
"Ala‐Leu‐Pro‐Met [ALPM, milk protein-derived peptide used for comparison]",XO inhibitory activity (inhibition ratio),[1]; experiment of Figure 5,45.0% ± 1.0
same,Concentration dependence of XO inhibition,[1]; LC-MS/MS,increase in the inhibition ratio in a concentration‐dependent manner
same,Concentration with significant XO inhibition,[1]; LC-MS/MS,≥ 5000 µM
same,Renal dysfunction,[4],improve renal dysfunction
same,Serum uric acid (SUA) levels,[4],reduce SUA levels
same,XO inhibition reported earlier,"[3]; ref Qi et al. [2022a], [2022b]",inhibit XO
same,XO inhibitory activity,[2]; [7],25.2% ± 1.9
same,Suppression of the absorbance increase / enzymatic reaction compared with control (relative absorbance),[2]; n = 3,suppressed this increase compared with the control
same,Concentration with significant XO inhibition,[2]; [8],20 mM
Ala‐Met,IC50,[3],40.5 mM
Asp‐Gln‐Trp [DQW],XO inhibitory activity (inhibition ratio),[1]; [6],48.4% ± 8.5
same,XO inhibitory activity in comparison with another peptide,[1]; LC-MS/MS,comparable to that of LDQW
same,Concentration dependence of XO inhibition,[1]; LC-MS/MS,significantly inhibited XO activity in a concentration‐dependent manner
Gly‐Leu,IC50,[3],10.2 mM
Leu‐Leu‐Trp [LLW],XO inhibition reported earlier,"[3]; ref Qi et al. [2023], [2024]",known for their XO inhibitory activities
same,Expression of genes related to UA synthesis in the liver,[5],reduce the expression of genes related to UA synthesis in the liver
same,Gene expression for UA excretion in the kidneys,[5],enhance gene expression for UA excretion in the kidneys
Phe‐His,IC50,[3],25.7 mM
"Pro‐Glu‐Trp [PEW, peptide derived from milk proteins]",XO inhibition reported earlier,"[3]; ref Qi et al. [2022a], [2022b]",inhibit XO
same,XO inhibition reported earlier,"[3]; ref Qi et al. [2023], [2024]",known for their XO inhibitory activities
same,Expression of genes related to UA synthesis in the liver,[5],reduce the expression of genes related to UA synthesis in the liver
same,Gene expression for UA excretion in the kidneys,[5],enhance gene expression for UA excretion in the kidneys
Pro‐Met,IC50,[3],23.8 mM
YNITGW,IC50,[3],9.8 mM
